The results in this text go back to article PMC8550792, “Evolution of kinase polypharmacology across HSP90 drug discovery” (Cell Chemical Biology, 2021).

Like-named read-outs stand apart in the source and are kept apart here.

What all share (test): biochemical
What all share (type): biochemical

Experiment [1] has as its target T1, 382 unique human kinases (Homo sapiens, UniProt Q96GD4).
T1 construct: purchased Reaction Biology (HotSpot contract assay)
To be noted: kinase Aurora B, compound 10 uM; for remaining activity at 10 µM: read-out: % Enzyme Activity (relative to DMSO controls).

Experiment [2] deals with T2, 382 unique human kinases (Homo sapiens, UniProt P08922).
T2 construct: purchased Reaction Biology (HotSpot contract assay)
To be noted: ROS/ROS1, 10 uM; for remaining activity at 10 µM: read-out: % Enzyme Activity (relative to DMSO controls).

The target in experiment [3] is T3, 382 unique human kinases (Homo sapiens, UniProt P51617).
T3 construct: purchased Reaction Biology (HotSpot contract assay)
The settings on record: kinase IRAK1, compound 10 uM; for remaining activity at 10 µM: read-out: % Enzyme Activity (relative to DMSO controls).

Experiment [4] addresses T4, 382 unique human kinases (Homo sapiens, UniProt Q13131).
T4 construct: purchased Reaction Biology (HotSpot contract assay)
The settings on record: for remaining activity at 10 µM: read-out: % Enzyme Activity (relative to DMSO controls).

Experiment [5] has as its target T5, 382 unique human kinases (Homo sapiens, UniProt O43318).
T5 construct: purchased Reaction Biology (HotSpot contract assay)
T5 sequence (O43318 1-606): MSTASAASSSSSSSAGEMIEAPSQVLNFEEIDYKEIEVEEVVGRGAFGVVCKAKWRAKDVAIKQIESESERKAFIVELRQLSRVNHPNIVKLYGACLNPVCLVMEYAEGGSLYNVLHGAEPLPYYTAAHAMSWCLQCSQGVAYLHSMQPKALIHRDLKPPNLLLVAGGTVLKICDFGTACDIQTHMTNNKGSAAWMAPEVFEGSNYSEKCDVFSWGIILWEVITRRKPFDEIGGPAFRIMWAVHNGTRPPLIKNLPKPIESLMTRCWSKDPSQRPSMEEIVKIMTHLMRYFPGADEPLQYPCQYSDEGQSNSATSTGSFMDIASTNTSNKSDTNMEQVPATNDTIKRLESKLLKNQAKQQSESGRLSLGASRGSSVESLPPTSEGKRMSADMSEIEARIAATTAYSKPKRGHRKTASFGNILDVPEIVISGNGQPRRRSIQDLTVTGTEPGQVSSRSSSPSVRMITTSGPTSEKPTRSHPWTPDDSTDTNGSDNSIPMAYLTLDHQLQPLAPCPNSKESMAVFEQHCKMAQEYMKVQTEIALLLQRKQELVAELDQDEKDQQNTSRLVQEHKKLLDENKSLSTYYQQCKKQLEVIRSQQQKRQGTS
To be noted: kinase TAK1, compound 10 uM; for remaining activity at 10 µM: read-out: % Enzyme Activity (relative to DMSO controls).

In experiment [6] the target is T6, 382 unique human kinases (Homo sapiens, UniProt Q9UPE1).
T6 construct: purchased Reaction Biology (HotSpot contract assay)
The settings on record: MSSK1/STK23, 10 uM; for remaining activity at 10 µM: read-out: % Enzyme Activity (relative to DMSO controls).

The target of experiment [7] is T7, 382 unique human kinases (Homo sapiens, UniProt P07949, S904F).
T7 construct: purchased Reaction Biology (HotSpot contract assay)
To be noted: RET (S904F), 10 uM; for remaining activity at 10 µM: read-out: % Enzyme Activity (relative to DMSO controls).

In experiment [8] the target is T8, 382 unique human kinases (Homo sapiens, UniProt Q9UL54).
T8 construct: purchased Reaction Biology (HotSpot contract assay)
T8 sequence (Q9UL54 1-1235): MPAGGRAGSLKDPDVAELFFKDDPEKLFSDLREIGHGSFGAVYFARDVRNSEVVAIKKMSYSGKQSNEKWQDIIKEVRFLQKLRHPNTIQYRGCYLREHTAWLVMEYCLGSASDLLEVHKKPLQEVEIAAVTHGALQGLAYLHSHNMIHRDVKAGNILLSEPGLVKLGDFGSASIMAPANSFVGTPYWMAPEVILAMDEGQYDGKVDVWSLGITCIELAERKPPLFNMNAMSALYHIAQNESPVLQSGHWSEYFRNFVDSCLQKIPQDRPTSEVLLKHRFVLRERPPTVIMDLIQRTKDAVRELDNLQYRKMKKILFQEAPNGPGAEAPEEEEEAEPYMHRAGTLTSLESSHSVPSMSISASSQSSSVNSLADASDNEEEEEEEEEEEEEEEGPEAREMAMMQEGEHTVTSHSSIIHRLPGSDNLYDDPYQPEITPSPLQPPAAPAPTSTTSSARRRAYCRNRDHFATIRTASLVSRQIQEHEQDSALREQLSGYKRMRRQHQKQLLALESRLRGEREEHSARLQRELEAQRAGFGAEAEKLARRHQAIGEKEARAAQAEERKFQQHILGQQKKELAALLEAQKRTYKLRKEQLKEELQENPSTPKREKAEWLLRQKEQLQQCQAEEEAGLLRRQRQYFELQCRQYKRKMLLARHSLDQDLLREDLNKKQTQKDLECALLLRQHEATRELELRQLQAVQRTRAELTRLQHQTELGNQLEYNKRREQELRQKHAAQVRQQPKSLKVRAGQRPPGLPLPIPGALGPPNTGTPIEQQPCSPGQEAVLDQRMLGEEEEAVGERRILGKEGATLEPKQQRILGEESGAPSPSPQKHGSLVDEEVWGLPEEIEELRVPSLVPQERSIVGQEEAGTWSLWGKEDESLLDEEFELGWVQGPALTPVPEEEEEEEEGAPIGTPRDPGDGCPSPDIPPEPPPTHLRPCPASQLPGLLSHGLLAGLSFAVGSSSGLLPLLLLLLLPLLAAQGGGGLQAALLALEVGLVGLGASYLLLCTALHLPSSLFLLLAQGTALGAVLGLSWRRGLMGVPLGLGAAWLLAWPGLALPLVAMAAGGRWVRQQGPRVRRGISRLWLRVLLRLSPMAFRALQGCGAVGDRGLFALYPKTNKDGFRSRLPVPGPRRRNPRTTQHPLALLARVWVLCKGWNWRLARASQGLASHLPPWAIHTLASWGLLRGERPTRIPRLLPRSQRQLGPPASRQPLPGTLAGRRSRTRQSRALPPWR
To be noted: TAOK2/TAO1, [ATP] 30 µM, compound 10 uM; for remaining activity at 10 µM: read-out: % Enzyme Activity (relative to DMSO controls).

The target in experiment [9] is T9, 382 unique human kinases (Homo sapiens, UniProt Q9UQM7).
T9 construct: purchased Reaction Biology (HotSpot contract assay)
The settings on record: CAMK2a, 10 uM; for remaining activity at 10 µM: read-out: % Enzyme Activity (relative to DMSO controls).

Experiment [10] deals with T10, 382 unique human kinases (Homo sapiens, UniProt Q16644).
T10 construct: purchased Reaction Biology (HotSpot contract assay)
The settings on record: MAPKAPK3, 10 uM; for remaining activity at 10 µM: read-out: % Enzyme Activity (relative to DMSO controls).

The target of experiment [11] is T11, 382 unique human kinases (Homo sapiens, UniProt Q9NYL2).
T11 construct: purchased Reaction Biology (HotSpot contract assay)
To be noted: ZAK/MLTK, [ATP] 50 µM, compound 10 uM; for remaining activity at 10 µM: read-out: % Enzyme Activity (relative to DMSO controls).

Experiment [12] deals with T12, 382 unique human kinases (Homo sapiens, UniProt P10721, V559D).
T12 construct: purchased Reaction Biology (HotSpot contract assay)
The settings on record: c-Kit (V559D), [ATP] 20 µM, compound 10 uM; for remaining activity at 10 µM: read-out: % Enzyme Activity (relative to DMSO controls).

Experiment [13] has as its target T13, 382 unique human kinases (Homo sapiens, UniProt P07949, G691S).
T13 construct: purchased Reaction Biology (HotSpot contract assay)
The settings on record: RET (G691S), 10 uM; for remaining activity at 10 µM: read-out: % Enzyme Activity (relative to DMSO controls).

The mark [14] stands for this setting: kinase AMPK(A1/B1/G3), compound 10 uM.

T9 sequence (Q9UQM7 whole entry): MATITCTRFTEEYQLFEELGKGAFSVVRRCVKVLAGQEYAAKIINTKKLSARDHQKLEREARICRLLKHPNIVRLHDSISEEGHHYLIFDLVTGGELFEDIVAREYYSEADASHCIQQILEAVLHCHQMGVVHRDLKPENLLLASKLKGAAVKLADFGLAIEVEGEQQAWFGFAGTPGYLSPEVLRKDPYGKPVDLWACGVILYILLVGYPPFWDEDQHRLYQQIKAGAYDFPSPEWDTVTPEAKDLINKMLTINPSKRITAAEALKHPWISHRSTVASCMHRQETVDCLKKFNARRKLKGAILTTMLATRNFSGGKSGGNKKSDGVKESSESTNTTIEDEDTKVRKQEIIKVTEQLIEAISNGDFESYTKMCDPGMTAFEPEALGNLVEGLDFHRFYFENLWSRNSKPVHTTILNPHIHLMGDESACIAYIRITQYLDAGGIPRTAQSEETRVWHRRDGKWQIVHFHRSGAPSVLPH
T7 sequence (P07949 29-1114 S904F): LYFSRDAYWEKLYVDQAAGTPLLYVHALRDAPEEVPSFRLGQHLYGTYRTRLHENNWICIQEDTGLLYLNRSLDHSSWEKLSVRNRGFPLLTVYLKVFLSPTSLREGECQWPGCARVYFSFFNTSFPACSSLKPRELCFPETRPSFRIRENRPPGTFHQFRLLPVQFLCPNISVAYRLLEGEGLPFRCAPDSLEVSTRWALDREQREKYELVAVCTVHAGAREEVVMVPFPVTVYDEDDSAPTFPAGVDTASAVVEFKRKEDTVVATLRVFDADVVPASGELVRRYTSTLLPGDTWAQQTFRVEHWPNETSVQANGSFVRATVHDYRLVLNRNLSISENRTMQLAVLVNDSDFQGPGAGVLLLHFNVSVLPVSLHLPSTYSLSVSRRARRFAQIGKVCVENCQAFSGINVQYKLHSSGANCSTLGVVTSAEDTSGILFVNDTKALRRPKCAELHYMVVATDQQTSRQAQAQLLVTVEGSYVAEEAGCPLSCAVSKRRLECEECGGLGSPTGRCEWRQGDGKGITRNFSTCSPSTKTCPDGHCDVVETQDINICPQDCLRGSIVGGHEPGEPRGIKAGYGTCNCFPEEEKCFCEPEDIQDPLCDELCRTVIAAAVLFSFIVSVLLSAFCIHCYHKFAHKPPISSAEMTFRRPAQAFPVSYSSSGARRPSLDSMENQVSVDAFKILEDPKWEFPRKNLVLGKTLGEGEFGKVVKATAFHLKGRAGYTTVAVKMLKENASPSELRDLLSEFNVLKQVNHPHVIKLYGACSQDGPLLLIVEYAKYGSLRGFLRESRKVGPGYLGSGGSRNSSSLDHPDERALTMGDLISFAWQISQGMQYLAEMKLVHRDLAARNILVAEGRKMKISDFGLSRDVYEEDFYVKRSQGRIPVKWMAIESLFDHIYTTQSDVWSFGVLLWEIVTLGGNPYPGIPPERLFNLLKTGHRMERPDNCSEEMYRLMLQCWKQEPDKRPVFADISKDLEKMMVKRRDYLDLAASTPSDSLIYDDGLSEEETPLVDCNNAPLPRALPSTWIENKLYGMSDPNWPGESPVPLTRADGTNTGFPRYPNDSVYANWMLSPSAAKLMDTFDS
T12 sequence (P10721 26-976 V559D): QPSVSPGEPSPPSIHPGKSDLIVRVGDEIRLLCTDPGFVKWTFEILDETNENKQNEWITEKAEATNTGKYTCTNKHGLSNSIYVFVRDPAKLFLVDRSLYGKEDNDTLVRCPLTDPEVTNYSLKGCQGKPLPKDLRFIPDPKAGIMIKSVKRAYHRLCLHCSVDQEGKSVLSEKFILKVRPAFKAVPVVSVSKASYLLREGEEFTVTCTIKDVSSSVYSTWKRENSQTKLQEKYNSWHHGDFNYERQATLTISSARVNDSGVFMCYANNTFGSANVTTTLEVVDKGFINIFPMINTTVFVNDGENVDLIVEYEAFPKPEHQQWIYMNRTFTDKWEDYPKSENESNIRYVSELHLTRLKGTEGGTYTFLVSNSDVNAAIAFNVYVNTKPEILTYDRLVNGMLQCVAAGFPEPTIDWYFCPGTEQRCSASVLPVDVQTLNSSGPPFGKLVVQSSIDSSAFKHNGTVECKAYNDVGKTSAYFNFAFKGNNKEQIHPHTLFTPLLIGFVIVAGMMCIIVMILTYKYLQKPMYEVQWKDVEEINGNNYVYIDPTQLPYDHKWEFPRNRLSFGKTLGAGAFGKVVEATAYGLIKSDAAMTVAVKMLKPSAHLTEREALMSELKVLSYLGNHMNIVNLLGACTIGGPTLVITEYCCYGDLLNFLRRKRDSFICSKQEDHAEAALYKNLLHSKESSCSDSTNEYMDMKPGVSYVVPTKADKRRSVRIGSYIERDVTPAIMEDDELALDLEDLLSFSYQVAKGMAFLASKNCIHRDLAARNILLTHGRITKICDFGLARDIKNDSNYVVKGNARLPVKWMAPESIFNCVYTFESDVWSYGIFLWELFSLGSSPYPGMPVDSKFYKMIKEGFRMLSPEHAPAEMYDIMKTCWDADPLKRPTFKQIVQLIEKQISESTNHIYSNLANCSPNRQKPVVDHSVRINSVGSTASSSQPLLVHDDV
T4 sequence (Q13131 whole entry): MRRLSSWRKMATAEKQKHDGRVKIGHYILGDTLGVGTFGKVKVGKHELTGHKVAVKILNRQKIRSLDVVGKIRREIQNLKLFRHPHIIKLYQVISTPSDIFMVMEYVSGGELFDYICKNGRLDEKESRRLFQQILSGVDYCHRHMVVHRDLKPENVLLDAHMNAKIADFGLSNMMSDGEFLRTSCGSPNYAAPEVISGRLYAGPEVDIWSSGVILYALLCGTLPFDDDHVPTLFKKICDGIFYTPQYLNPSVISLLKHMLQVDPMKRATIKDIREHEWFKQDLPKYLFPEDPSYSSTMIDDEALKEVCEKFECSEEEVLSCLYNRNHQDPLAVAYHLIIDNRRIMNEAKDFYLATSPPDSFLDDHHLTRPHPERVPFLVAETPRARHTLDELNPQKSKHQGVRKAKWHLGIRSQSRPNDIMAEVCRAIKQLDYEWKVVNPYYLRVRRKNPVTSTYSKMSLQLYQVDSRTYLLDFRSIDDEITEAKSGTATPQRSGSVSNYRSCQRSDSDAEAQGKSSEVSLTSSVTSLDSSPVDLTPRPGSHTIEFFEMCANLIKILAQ
T3 sequence (P51617 whole entry): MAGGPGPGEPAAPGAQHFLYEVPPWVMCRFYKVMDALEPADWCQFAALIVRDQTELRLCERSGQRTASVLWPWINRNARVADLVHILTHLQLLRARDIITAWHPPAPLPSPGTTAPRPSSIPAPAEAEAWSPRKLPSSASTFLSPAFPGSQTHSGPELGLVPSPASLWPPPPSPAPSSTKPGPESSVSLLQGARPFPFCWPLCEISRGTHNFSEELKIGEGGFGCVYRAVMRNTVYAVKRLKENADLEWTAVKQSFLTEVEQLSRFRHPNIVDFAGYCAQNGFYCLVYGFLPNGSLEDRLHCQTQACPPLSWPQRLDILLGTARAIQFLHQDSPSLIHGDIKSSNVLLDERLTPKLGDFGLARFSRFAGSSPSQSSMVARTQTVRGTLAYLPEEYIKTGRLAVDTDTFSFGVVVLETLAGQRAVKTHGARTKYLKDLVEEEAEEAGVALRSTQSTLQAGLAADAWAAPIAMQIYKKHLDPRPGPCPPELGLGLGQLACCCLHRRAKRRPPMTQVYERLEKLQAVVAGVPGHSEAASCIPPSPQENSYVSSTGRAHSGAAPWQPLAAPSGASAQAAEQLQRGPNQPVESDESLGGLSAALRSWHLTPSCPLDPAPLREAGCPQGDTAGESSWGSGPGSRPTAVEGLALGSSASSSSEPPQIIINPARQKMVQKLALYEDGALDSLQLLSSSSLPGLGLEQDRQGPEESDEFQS
T6 sequence (Q9UPE1 whole entry): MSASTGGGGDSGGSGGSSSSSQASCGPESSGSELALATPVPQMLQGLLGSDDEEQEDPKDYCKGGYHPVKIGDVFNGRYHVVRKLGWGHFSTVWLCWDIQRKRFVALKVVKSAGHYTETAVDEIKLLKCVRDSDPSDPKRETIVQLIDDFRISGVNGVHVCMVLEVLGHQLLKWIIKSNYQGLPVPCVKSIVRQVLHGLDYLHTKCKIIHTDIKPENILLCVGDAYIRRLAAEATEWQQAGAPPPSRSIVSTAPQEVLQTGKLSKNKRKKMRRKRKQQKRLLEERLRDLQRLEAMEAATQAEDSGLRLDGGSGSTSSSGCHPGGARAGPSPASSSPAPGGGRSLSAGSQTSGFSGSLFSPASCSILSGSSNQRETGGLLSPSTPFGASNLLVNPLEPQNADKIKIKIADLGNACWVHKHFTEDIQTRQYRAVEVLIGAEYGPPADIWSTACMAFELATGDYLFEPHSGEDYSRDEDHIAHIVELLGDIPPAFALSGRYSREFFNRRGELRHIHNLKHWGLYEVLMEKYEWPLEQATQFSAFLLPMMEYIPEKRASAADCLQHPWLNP
T13 sequence (P07949 29-1114 G691S): as the sequence (P07949 29-1114 S904F) above, with G663S, F876S counted along it
T1 sequence (Q96GD4 whole entry): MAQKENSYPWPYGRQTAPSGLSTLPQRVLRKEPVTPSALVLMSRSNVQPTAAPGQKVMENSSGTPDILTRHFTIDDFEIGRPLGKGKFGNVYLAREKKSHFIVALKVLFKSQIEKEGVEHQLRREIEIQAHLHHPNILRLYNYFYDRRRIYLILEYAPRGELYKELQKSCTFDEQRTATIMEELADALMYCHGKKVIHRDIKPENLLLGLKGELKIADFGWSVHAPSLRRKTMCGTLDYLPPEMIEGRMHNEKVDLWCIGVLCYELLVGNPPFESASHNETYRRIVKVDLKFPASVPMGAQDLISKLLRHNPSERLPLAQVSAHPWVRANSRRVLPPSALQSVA

As to `CC(C)c1cc(-c2n[nH]c(=O)n2-c2ccc3c(ccn3C)c2)c(O)cc1O` [Ganetespib (STA9090)], the remaining activity at 10 µM on 382 unique human kinases [1] stood at 83.6%; on 382 unique human kinases [2], 70.2%; at 382 unique human kinases [3] it was 102%; on 382 unique human kinases [4] (AMPK(A1/B1/G1), 10 uM) it was 79.7%; on 382 unique human kinases [4] (AMPK(A1/B1/G2), 10 uM), 73.2%; on 382 unique human kinases [4] (AMPK(A1/B2/G1), 10 uM) it was 70.8%. Besides, the remaining activity at 10 µM at 382 unique human kinases [4] (setting [14]) was determined as 86.1%; on 382 unique human kinases [5], 85.8%; at 382 unique human kinases [6], 73.6%; at 382 unique human kinases [7], 61.6%.
With `CC(C)c1cc(-c2n[nH]c(=O)n2-c2ccc3c(ccn3C)c2)c(O)cc1O` [Ganetespib], the remaining activity at 10 µM at 382 unique human kinases [8] amounted to 58.9%; on 382 unique human kinases [9], 91.1%; on 382 unique human kinases [10], 97.3%; at 382 unique human kinases [11], 48.1%; on 382 unique human kinases [12] it was 40.7%; on 382 unique human kinases [13] it was 98.6%.
Regarding `CCNC(=O)c1noc(-c2cc(C(C)C)c(O)cc2O)c1-c1ccc(CN2CCOCC2)cc1` [Luminespib (AUY-922)], the “% Enzyme Activity (relative to DMSO controls)” value at 382 unique human kinases [1] was determined as 100.09%; on 382 unique human kinases [2], 89.10%; on 382 unique human kinases [3], 104.17%; on 382 unique human kinases [4] (AMPK(A1/B1/G1), 10 uM), 99.40%; at 382 unique human kinases [4] (AMPK(A1/B1/G2), 10 uM), 104.49%; at 382 unique human kinases [4] (AMPK(A1/B2/G1), 10 uM), 96.58%. Besides, the “% Enzyme Activity (relative to DMSO controls)” value at 382 unique human kinases [4] (setting [14]) is listed as 118.21%; on 382 unique human kinases [5], 96.28%; at 382 unique human kinases [6], 95.48%; on 382 unique human kinases [7], 101.49%. In addition, the remaining activity at 10 µM was 104% at 382 unique human kinases [1]; 90.8% at 382 unique human kinases [2]; 105% on 382 unique human kinases [3]; 101% at 382 unique human kinases [4] (AMPK(A1/B1/G1), 10 uM); 107% at 382 unique human kinases [4] (AMPK(A1/B1/G2), 10 uM); 97.6% on 382 unique human kinases [4] (AMPK(A1/B2/G1), 10 uM). Also, the remaining activity at 10 µM at 382 unique human kinases [4] (setting [14]) came out at 119%; on 382 unique human kinases [5], 96.7%; on 382 unique human kinases [6], 95.8%; at 382 unique human kinases [7], 102%.
`CCNC(=O)c1noc(-c2cc(C(C)C)c(O)cc2O)c1-c1ccc(CN2CCOCC2)cc1` [Luminespib]: the “% Enzyme Activity (relative to DMSO controls)” value stood at 95.89% at 382 unique human kinases [8]; 102.76% on 382 unique human kinases [9]; 103.47% on 382 unique human kinases [10]; 94.35% on 382 unique human kinases [11]; 69.57% at 382 unique human kinases [12]; 100.12% on 382 unique human kinases [13]. Also, the remaining activity at 10 µM is 96% at 382 unique human kinases [8]; 104% on 382 unique human kinases [9]; 105% on 382 unique human kinases [10]; 99.3% at 382 unique human kinases [11]; 69.6% at 382 unique human kinases [12]; 101% on 382 unique human kinases [13].
